Assay results taken from patent US4827004A, “Isoprene derivatives” (Hoffmann-La Roche Inc., priority 1986, dated 1989).
Read-outs that look alike come from different tables or passages of the source.

What was measured:
[1] = system: mucous membrane of the stomach; test: ethanol test (mucosa-protective activity; ethanol-induced gastric lesions); format: in vivo, male rats; conditions: Rattus norvegicus, po, read-out: Ethanol Test ID 50
Protocol: The experimental procedure described hereinafter was used to determine the muscosa-protective property:
The oral administration of absolute ethanol to male rats in a dosage of 1 ml per rat leads within 1 hour to bloody lesions of the mucous membrane of the stomach. Various dosages of the substances to be tested (suspended in 0.125% carboxymethylcellulose) or of the vehicle alone (control) are administered to the rats orally (1 ml per rat) 30 minutes prior to the treatment with ethanol. One hour after the administration of the ethanol the animals are killed, their stomachs are investigated for the presence of lesions and the number and the total dimension of such lesions are determined. The ID50 is that dosage of a test substance which reduces by 50% the number of lesions in comparison to the control group.
(§1) In the following Table there are given for a series of representative compounds of formula I the results of the testing with respect to their mucosa-protective activity ("ethanol test") and to their gastric acid secretion-inhibiting activity. Moreover, this Table contains data concerning the acute toxicity (LD50 in the case of single oral administration to mice).

[2] = acute toxicity (single oral administration); conditions: mouse, in vivo, read-out: Toxicity LD 50
Excerpt: Representative compounds of formula I were investigated with respect to their mucosa-protective and gastric acid secretion-inhibiting properties as well as to their toxicity.
as §1

gastric acid secretion = test: gastric acid secretion-inhibiting activity (pylorus ligation according to Shay et al.); format: in vivo, male rats; conditions: Rattus norvegicus, read-out: Gastric acid secretion-inhibition, ID 50
Protocol: The test procedure described hereinafter was used to determine the gastric acid secretion-inhibiting activity:
The pylorus of male rats is ligated under slight ether narcosis in accordance with Shay et al. [Gastroenterology 5, 43 (1945)]. The substances to be tested, suspended in 0.5% carboxymethylcellulose, are administered intraduodenally. Control animals are treated only with the vehicle. Five hours after the ligation the animals are killed, the volume and acidity of their gastric juice are determined and the values obtained are compared with those of control animals. The ID50 is that dosage of a test substance which brings about a 50% decrease of the secretion in comparison to the control animals.
as §1

[3] = 30 minutes before ethanol, dosage reducing number of lesions by 50% vs control, male rats
[4] = intraduodenal, 5 hours after pylorus ligation, 50% decrease of secretion vs control, male rats
[5] = p.o., single oral administration to mice

Compound	ED50 [1, 3] [mg/kg]	LD50 ([2]; po) [mg/kg]	ED50 (gastric acid secretion; [4]) [mg/kg]	LD50 [2, 5] [mg/kg]	ED50 [1] [mg/kg]	ED50 (gastric acid secretion; 5 h) [mg/kg]
C/C=C/C(=O)CC/C(C)=C/CC/C(C)=C/CO [D, (all-E)-13-hydroxy-7,11-dimethyl-2,7,11-tridecatrien-4-one]	0.79	1000 to 2000	66			
C#CC(CC/C(C)=C/CC/C(C)=C/CO)(OCC)OCC [E, (all-E)-10,10-diethoxy-3,7-dimethyl-2,6-dodecadien-11-yn-1-ol]	0.93		18.4			
C#CC(=O)CC/C(C)=C/CC/C(C)=C/CO [A, (all-E)-12-hydroxy-6,10-dimethyl-6,10-dodecadien-1-yn-3-one]	0.55	1000 to 2000	2			
C=C(C)C(=O)CC/C(C)=C/CC/C(C)=C/C=O [G, (all-E)-10-oxo-3,7,11-trimethyl-2,6,11-dodecatrienal]	1.8	1000 to 2000	62.4			
C=C(C)C(CC/C(C)=C/CC/C(C)=C/CO)(OC)OC [Q, (all-E)-10,10-dimethoxy-3,7,11-trimethyl-2,6,11-dodecatrien-1-ol]	5.3	> 5000	4.7			
C=C(C)C(=O)CC/C(C)=C/CC/C(C)=C/C=NO (mixture of isomers) [T, (2E,6E)-3,7,11-trimethyl-10-oxo-2,6,11-dodecatrienal (E/Z)-oxime]	7.8		9.3			
C=C(C)C(O)CC/C(C)=C/CC/C(C)=C/CO (stereo not drawn) [N, (all-E)-3,7,11-trimethyl-2,6,11-dodecatriene-1,10-diol]	3.2	> 2000	41.6			
C=C(C)C1(CC/C(C)=C/CC/C(C)=C/CO)OCCO1 [I, (all-E)-3,7-Dimethyl-9-[2-(1-methylvinyl)-1,3-dioxolan-2-yl]-2,6-nonadien-1-ol]	2.7	> 4000	13.2			
CC#CC(=O)CC/C(C)=C/CC/C(C)=C/CO [C, (all-E)-13-hydroxy-7,11-dimethyl-7,11-tridecadien-2-yn-4-one]	0.78	1000 to 2000	80.3			
C=C(C)C(O)CC/C(C)=C/CC/C(C)=C/C(=O)O (stereo not drawn) [O, (all-E)-10-hydroxy-3,7,11-trimethyl-2,6,11-dodecatrienoic acid]	26.8	1250 to 2500	48.8			
C=C(C)C(=O)CC/C(C)=C\CC/C(C)=C\CO [H, (6Z,10Z)-12-hydroxy-2,6,10-trimethyl-1,6,10-dodecatrien-3-one]	1.8		57.7	2500 to 5000		
C=C(C)C(=O)CC/C(C)=C/CC/C(C)=C/C(=O)O [P, (all-E)-10-Oxo-3,7,11-trimethyl-2,6,11-dodecatrienoic acid]	5	1250 to 2500	79.6			
C=C(C)C(=O)CC/C(C)=C/CC/C(C)=C/C(N)=O [J, (E,E)-3,7,11-trimethyl-10-oxo-2,6,11-dodecatrienamide]				1000 to 2000	3.4	63.9
CC(C)=CC(=O)CC/C(C)=C/CC/C(C)=C/CO [K, (all-E)-13-hydroxy-2,7,11-trimethyl-2,7,11-tridecatrien-4-one]	3.6		60.8			
C=C(C)C(=O)CC/C(C)=C\CC/C(C)=C/CO [M, (6Z,10E)-12-hydroxy-2,6,10-trimethyl-1,6,10-dodecatrien-3-one]	4.5		62.7	2500 to 5000		
C=C(C)C(=O)CC/C(C)=C/CC/C(C)=C\CO [L, (6E,10Z)-12-hydroxy-2,6,10-trimethyl-1,6,10-dodecatrien-3-one]	4.4		73.4	625 to 1250		
C=CC(=O)CC/C(C)=C/CC/C(C)=C/CO [B, (all-E)-12-hydroxy-6,10-dimethyl-1,6,10-dodecatrien-3-one]	0.62		68.2			
C=C(C)C(O)CC/C(C)=C/CC/C(C)=C/C=O (stereo not drawn) [R, (all-E)-10-hydroxy-3,7,11-trimethyl-2,6,11-dodecatrienal]	6.4	> 5000	28.6			
C#CC(CC/C(C)=C/CC/C(C)=C/CO)=NOC (mixture of isomers) [U, (6E,10E)-12-hydroxy-6,10-dimethyl-6,10-dodecadien-1-yn-3-one (E/Z)-O-methyl oxime]	7.9	1000 to 2000	43.9			
C=C(C)C(=O)CC/C(C)=C/CC/C(C)=C/CO [F, (all-E)-12-hydroxy-2,6,10-trimethyl-1,6,10-dodecatrien-3-one]	1.3	625 to 1250	27.7			
C/C(=C\CO)CC/C=C(\C)CCC(=O)C#C[Si](C)(C)C [S, (all-E)-12-hydroxy-6,10-dimethyl-1-(trimethylsilyl)-6,10-dodecadien-1-yn-3-one]					6.5	46.9
CC=CC(O)CC/C(C)=C/CC/C(C)=C/CO (mixture of isomers) [V, (2E,6E,11(E/Z))-3,7-dimethyl-2,6,11-tridecatriene-1,10-diol]	9.3		57.4			
